According to patent US10385022B2, “3-amino-pyridines as GPBAR1 agonists” (HOFFMANN-LA ROCHE INC., priority 2011, dated 2019):

The compounds below were run against human GPBAR1 receptor (Homo sapiens (Human), UniProt Q8TDU6) (assay: functional cAMP assay in CHO-dhfr(minus) cells expressing human GPBAR1 receptors). Conditions: CHO-dhfr(minus) cells expressing human GPBAR1, 30 min at 30° C.
Assay type: cell-based
Summary of the method: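 CHO-dhfr- cells were transfected with human GPBAR1, and a clone was chosen by cAMP response to lithocholic acid. EC50 values come from the cAMP read-out; specificity was checked in non-transfected CHO cells.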

Sequence of human GPBAR1 receptor (Q8TDU6 whole entry): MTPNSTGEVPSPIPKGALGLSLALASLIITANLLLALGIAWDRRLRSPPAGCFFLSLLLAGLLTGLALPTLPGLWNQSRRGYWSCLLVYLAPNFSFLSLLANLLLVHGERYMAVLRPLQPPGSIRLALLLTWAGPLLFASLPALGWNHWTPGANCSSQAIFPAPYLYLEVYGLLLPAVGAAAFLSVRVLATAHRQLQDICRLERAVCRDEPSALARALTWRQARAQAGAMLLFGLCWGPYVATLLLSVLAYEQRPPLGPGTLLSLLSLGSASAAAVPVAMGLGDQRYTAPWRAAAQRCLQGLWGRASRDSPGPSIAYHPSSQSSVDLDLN

Row | EC50 | SMILES
1 | 59 nM | COc1cc(F)ccc1-c1ccncc1N(C)C(=O)c1cc(C(F)(F)F)nc(S(C)(=O)=O)c1 [Example 221, N-[4-(4-Fluoro-2-methoxy-phenyl)-pyridin-3-yl]-2-methanesulfonyl-N-methyl-6-trifluoro-methyl-isonicotinamide]
2 | 183 nM | CN(C(=O)c1cc(C(F)(F)F)cc(C(F)(F)F)c1)c1cnccc1-c1ccccc1N [Example 222, N-[4-(2-Amino-phenyl)-pyridin-3-yl]-N-methyl-3,5-bis-trifluoromethyl-benzamide]
3 | 46 nM | COc1cccc(F)c1-c1ccncc1N(CC(F)(F)F)C(=O)c1cc(C(F)(F)F)cc(S(C)(=O)=O)c1 [Example 223, N-[4-(2-Fluoro-6-methoxy-phenyl)-pyridin-3-yl]-3-methanesulfonyl-N-(2,2,2-trifluoro-ethyl)-5-trifluoromethyl-benzamide]
4 | 46 nM | COC(=O)CCS(=O)(=O)c1cc(C(=O)N(C)c2cnccc2-c2ccc(F)cc2OC)cc(C(F)(F)F)c1 [Example 224, 3-(3-{[4-(4-Fluoro-2-methoxy-phenyl)-pyridin-3-yl]-methyl-carbamoyl}-5-trifluoromethyl-benzenesulfonyl)-propionic acid methyl ester]
5 | 241 nM | COC(=O)CCSc1cc(C(=O)N(C)c2cnccc2-c2ccc(F)cc2OC)cc(C(F)(F)F)c1 [Example 225, 3-(3-{[4-(4-Fluoro-2-methoxy-phenyl)-pyridin-3-yl]-methyl-carbamoyl}-5-trifluoromethyl-phenylsulfanyl)-propionic acid methyl ester]
6 | 958 nM | COc1cc(F)ccc1-c1ccncc1N(C)C(=O)c1cc(O)cc(C(F)(F)F)c1 [Example 226, N-[4-(4-Fluoro-2-methoxy-phenyl)-pyridin-3-yl]-3-hydroxy-N-methyl-5-trifluoromethyl-benzamide]
7 | 93 nM | COc1cc(F)ccc1-c1ccncc1N(C)C(=O)c1cc(Cl)cc(OC(F)(F)F)c1 [Example 227, 3-Chloro-N-[4-(4-fluoro-2-methoxy-phenyl)-pyridin-3-yl]-N-methyl-5-trifluoromethoxy-benzamide]
8 | 57 nM | COc1cc(F)ccc1-c1ccncc1N(CC#N)C(=O)c1cc(C(F)(F)F)cc(S(C)(=O)=O)c1 [Example 228, N-Cyanomethyl-N-[4-(4-fluoro-2-methoxy-phenyl)-pyridin-3-yl]-3-methanesulfonyl-5-trifluoromethyl-benzamide]
9 | 27 nM | COCCN(C(=O)c1cc(C(F)(F)F)cc(S(C)(=O)=O)c1)c1cnccc1-c1c(F)cccc1OC [Example 229, N-[4-(2-Fluoro-6-methoxy-phenyl)-pyridin-3-yl]-3-methanesulfonyl-N-(2-methoxy-ethyl)-5-trifluoromethyl-benzamide]
10 | 73 nM | COc1cc(F)ccc1-c1ccnc(C)c1N(C)C(=O)c1cc(C(F)(F)F)cc(S(C)(=O)=O)c1 [Example 230, N-[4-(4-Fluoro-2-methoxy-phenyl)-2-methyl-pyridin-3-yl]-3-methanesulfonyl-N-methyl-5-trifluoromethyl-benzamide]
11 | 3500 nM | COc1cc(F)ccc1-c1ccncc1N(Cc1cc(C)on1)C(=O)c1cc(C(F)(F)F)cc(S(C)(=O)=O)c1 [Example 231, N-[4-(4-Fluoro-2-methoxy-phenyl)-pyridin-3-yl]-3-methanesulfonyl-N-(5-methyl-isoxazol-3-ylmethyl)-5-trifluoromethyl-benzamide]
12 | 405 nM | COc1cc(F)ccc1-c1ccncc1N(C)C(=O)c1cc(SCCNC(=O)OC(C)(C)C)cc(C(F)(F)F)c1 [Example 234, [2-(3-{[4-(4-Fluoro-2-methoxy-phenyl)-pyridin-3-yl]-methyl-carbamoyl}-5-trifluoromethyl-phenylsulfanyl)-ethyl]-carbamic acid tert-butyl ester]
13 | 85 nM | COc1cc(F)ccc1-c1ccncc1N(C)C(=O)c1cc(C2COC2)cc(C(F)(F)F)c1 [Example 235, N-[4-(4-Fluoro-2-methoxy-phenyl)-pyridin-3-yl]-N-methyl-3-oxetan-3-yl-5-trifluoromethyl-benzamide]
14 | 886 nM | COCCOc1cc(C(=O)N(C)c2cnccc2-c2ccc(F)cc2OC)cc(C(F)(F)F)c1 [Example 236, N-[4-(4-Fluoro-2-methoxy-phenyl)-pyridin-3-yl]-3-(2-methoxy-ethoxy)-N-methyl-5-trifluoromethyl-benzamide]
15 | 340 nM | COc1cc(F)ccc1-c1ccncc1N(C)C(=O)c1cc(SCCN)cc(C(F)(F)F)c1 [Example 237, 3-(2-Amino-ethylsulfanyl)-N-[4-(4-fluoro-2-methoxy-phenyl)-pyridin-3-yl]-N-methyl-5-trifluoromethyl-benzamide]
16 | 23 nM | COc1cc(F)ccc1-c1ccncc1N(C)C(=O)c1cc(Cl)cc(C2CC2)c1 [Example 238, 3-Chloro-5-cyclopropyl-N-[4-(4-fluoro-2-methoxy-phenyl)-pyridin-3-yl]-N-methyl-benzamide]

Row | EC50 | SMILES
17 | 508 nM | COc1cc(F)ccc1-c1ccncc1N(C)C(=O)c1cc(SCCCC(=O)O)cc(C(F)(F)F)c1 [Example 239, 4-(3-{[4-(4-Fluoro-2-methoxy-phenyl)-pyridin-3-yl]-methyl-carbamoyl}-5-trifluoromethyl-phenylsulfanyl)-butyric acid]
18 | 1150 nM | COc1cc(F)ccc1-c1ccncc1N(C)C(=O)c1cc(OCCO)cc(C(F)(F)F)c1 [Example 240, N-[4-(4-Fluoro-2-methoxy-phenyl)-pyridin-3-yl]-3-(2-hydroxy-ethoxy)-N-methyl-5-trifluoromethyl-benzamide]
19 | 105 nM | COc1cc(F)ccc1-c1ccncc1N(C)C(=O)c1cc(C(F)(F)F)cc(S(=O)(=O)CCN)c1 [Example 241, 3-(2-Amino-ethanesulfonyl)-N-[4-(4-fluoro-2-methoxy-phenyl)-pyridin-3-yl]-N-methyl-5-trifluoromethyl-benzamide]
20 | 11 nM | CN(C(=O)c1cc(C(F)(F)F)cc(S(C)(=O)=O)c1)c1cnccc1-c1ccccc1OC1CC1 [Example 242, N-[4-(2-Cyclopropoxy-phenyl)-pyridin-3-yl]-3-methanesulfonyl-N-methyl-5-trifluoromethyl-benzamide]
21 | 610 nM | COc1cc(F)ccc1-c1ccncc1N(C)C(=O)c1cc(SCCCCC(=O)O)cc(C(F)(F)F)c1 [Example 243, 5-(3-{[4-(4-Fluoro-2-methoxy-phenyl)-pyridin-3-yl]-methyl-carbamoyl}-5-trifluoromethyl-phenylsulfanyl)-pentanoic acid]
22 | 1150 nM | CS(=O)(=O)c1cc(C(=O)N(CCO)c2cnccc2-c2ccccc2F)cc(C(F)(F)F)c1 [Example 244, N-[4-(2-Fluoro-phenyl)-pyridin-3-yl]-N-(2-hydroxy-ethyl)-3-methanesulfonyl-5-trifluoromethyl-benzamide]
23 | 933 nM | COc1cc(F)ccc1-c1ccncc1N(C)C(=O)c1cc(C2CN(C(=O)OC(C)(C)C)C2)cc(C(F)(F)F)c1 [Example 245, 3-(3-{[4-(4-Fluoro-2-methoxy-phenyl)-pyridin-3-yl]-methyl-carbamoyl}-5-trifluoromethyl-phenyl)-azetidine-1-carboxylic acid tert-butyl ester]
24 | 168 nM | COc1cc(F)ccc1-c1ccncc1N(C)C(=O)c1cc(Br)cc(OC(F)(F)F)c1 [Example 246, 3-Bromo-N-[4-(4-fluoro-2-methoxy-phenyl)-pyridin-3-yl]-N-methyl-5-trifluoromethoxy-benzamide]
25 | 413 nM | COc1cc(F)ccc1-c1ccncc1N(C)C(=O)c1cc(C(F)(F)F)cc(S(=O)(=O)CCCC(=O)O)c1 [Example 247, 4-(3-{[4-(4-Fluoro-2-methoxy-phenyl)-pyridin-3-yl]-methyl-carbamoyl}-5-trifluoromethyl-benzenesulfonyl)-butyric acid]
26 | 323 nM | COc1cc(F)ccc1-c1ccncc1N(C)C(=O)c1cc(C(F)(F)F)cc(S(=O)(=O)CCCCC(=O)O)c1 [Example 248, 5-(3-{[4-(4-Fluoro-2-methoxy-phenyl)-pyridin-3-yl]-methyl-carbamoyl}-5-trifluoromethyl-benzenesulfonyl)-pentanoic acid]
27 | 19 nM | COc1cc(F)ccc1-c1ccncc1N(C)C(=O)c1cc(C(F)(F)F)cc(S(=O)(=O)N2CCC2)c1 [Example 249, 3-(Azetidine-1-sulfonyl)-N-[4-(4-fluoro-2-methoxy-phenyl)-pyridin-3-yl]-N-methyl-5-trifluoromethyl-benzamide]
28 | 2960 nM | COc1cc(F)ccc1-c1ccncc1N(Cc1nccn1C)C(=O)c1cc(C(F)(F)F)cc(S(C)(=O)=O)c1 [Example 250, N-[4-(4-Fluoro-2-methoxy-phenyl)-pyridin-3-yl]-3-methanesulfonyl-N-(1-methyl-1H-imidazol-2-ylmethyl)-5-trifluoromethyl-benzamide]
29 | 30 nM | COc1cc(F)ccc1-c1ccncc1N(C)C(=O)c1cc(SC2COC2)cc(C(F)(F)F)c1 [Example 251, N-[4-(4-Fluoro-2-methoxy-phenyl)-pyridin-3-yl]-N-methyl-3-(oxetan-3-ylsulfanyl)-5-trifluoromethyl-benzamide]
30 | 170 nM | COc1cc(F)ccc1-c1ccncc1N(C)C(=O)c1cc(OC(F)(F)F)cc(S(C)(=O)=O)c1 [Example 252, N-[4-(4-Fluoro-2-methoxy-phenyl)-pyridin-3-yl]-3-methanesulfonyl-N-methyl-5-trifluoromethoxy-benzamide]
31 | 3040 nM | Cc1ccc(F)cc1-c1cc(Cl)ncc1N(C)C(=O)c1cc(C(F)(F)F)cc(S(C)(=O)=O)c1 [Example 253, N-[6-Chloro-4-(5-fluoro-2-methyl-phenyl)-pyridin-3-yl]-3-methanesulfonyl-N-methyl-5-trifluoromethyl-benzamide]
32 | 54 nM | COc1cc(F)ccc1-c1ccncc1N(C)C(=O)c1cc(C(F)(F)F)cc(S(=O)(=O)CCCCC(N)=O)c1 [Example 254, 3-(4-Carbamoyl-butane-1-sulfonyl)-N-[4-(4-fluoro-2-methoxy-phenyl)-pyridin-3-yl]-N-methyl-5-trifluoromethyl-benzamide]
